Article PMC4467398, “Preclinical antitumor activity of ST7612AA1: a new oral thiol-based histone deacetylase (HDAC) inhibitor” (Oncotarget, 2014)

Test system: DOHH2 and TMD8 DLBCL cells
Experiment: Gene expression profiling (HumanHT-12 v4 BeadChip, limma), ST7612AA1 300 nM 8 hrs vs DMSO
Type: cell-based, human
Conditions: 300 nM 8 hrs

CC(=O)SCCCCC[C@H](NC(=O)[C@H]1CCC(=O)N1)C(=O)Nc1ccccc1 [ST7612AA1]
AveExpr.ST7612 NOSIP (probe ILMN_1759436): 7.06E-01
AveExpr.ST7612 NPC2 (probe ILMN_1716678): 8.44E-01
AveExpr.ST7612 NPL (probe ILMN_1782070): 7.76E-01
AveExpr.ST7612 NPL (probe ILMN_2149494): 8.88E-01
AveExpr.ST7612 NQO2 (probe ILMN_1712918): 8.69E-01
AveExpr.ST7612 NUB1 (probe ILMN_1665291): 7.20E-01
AveExpr.ST7612 NUMB (probe ILMN_2331266): 7.27E-01
AveExpr.ST7612 NXF1 (probe ILMN_1705783): 8.80E-01
AveExpr.ST7612 NXF1 (probe ILMN_2358652): 7.18E-01
AveExpr.ST7612 P704P (probe ILMN_1793950): 6.85E-01
AveExpr.ST7612 PAQR8 (probe ILMN_1694589): 7.20E-01
AveExpr.ST7612 PCYOX1 (probe ILMN_1679725): 7.89E-01
AveExpr.ST7612 PDXK (probe ILMN_1672504): 8.94E-01
AveExpr.ST7612 PECI (probe ILMN_2384536): 8.25E-01
AveExpr.ST7612 PEX16 (probe ILMN_1745655): 7.84E-01
AveExpr.ST7612 PIM2 (probe ILMN_1748283): 7.43E-01
AveExpr.ST7612 PKIA (probe ILMN_2337974): 7.37E-01
AveExpr.ST7612 PLD3 (probe ILMN_1666976): 8.81E-01
AveExpr.ST7612 PMAIP1 (probe ILMN_2098446): 8.50E-01
AveExpr.ST7612 PNKD (probe ILMN_1774604): 7.25E-01
AveExpr.ST7612 PRDX2 (probe ILMN_1767766): 8.35E-01
AveExpr.ST7612 PRDX2 (probe ILMN_2382829): 7.41E-01
AveExpr.ST7612 PTGER4 (probe ILMN_1795930): 9.03E-01
AveExpr.ST7612 PTTG1 (probe ILMN_1753196): 6.92E-01
AveExpr.ST7612 RAB8B (probe ILMN_2173004): 8.71E-01
AveExpr.ST7612 RAB24 (probe ILMN_2379718): 7.77E-01
AveExpr.ST7612 RABGAP1 (probe ILMN_2061950): 6.86E-01
AveExpr.ST7612 RAPGEF2 (probe ILMN_3247261): 8.54E-01
AveExpr.ST7612 RASAL1 (probe ILMN_1793517): 7.10E-01
AveExpr.ST7612 RASD2 (probe ILMN_2170209): 7.75E-01
AveExpr.ST7612 REEP2 (probe ILMN_1666057): 6.85E-01
AveExpr.ST7612 RFC1 (probe ILMN_2217935): 7.23E-01
AveExpr.ST7612 RHBDD2 (probe ILMN_1809437): 7.80E-01
AveExpr.ST7612 RHBDD2 (probe ILMN_2406410): 8.04E-01
AveExpr.ST7612 RHOBTB3 (probe ILMN_1744949): 8.25E-01
AveExpr.ST7612 RHOC (probe ILMN_1673305): 9.02E-01
AveExpr.ST7612 RNASE4 (probe ILMN_1776602): 7.33E-01
AveExpr.ST7612 RND2 (probe ILMN_1736533): 7.06E-01
AveExpr.ST7612 RNF24 (probe ILMN_1717809): 7.24E-01
AveExpr.ST7612 RTN2 (probe ILMN_1749115): 8.60E-01
AveExpr.ST7612 RTN3 (probe ILMN_2363065): 7.08E-01
AveExpr.ST7612 SBK1 (probe ILMN_1728298): 8.80E-01
AveExpr.ST7612 SCARNA11 (probe ILMN_3236010): 6.95E-01
AveExpr.ST7612 SCARNA13 (probe ILMN_3235325): 7.18E-01
AveExpr.ST7612 SCARNA14 (probe ILMN_3247636): 7.31E-01
AveExpr.ST7612 SDCBP (probe ILMN_2363586): 8.86E-01
AveExpr.ST7612 SDCBP (probe ILMN_2363591): 8.22E-01
AveExpr.ST7612 SDHAP2 (probe ILMN_3248781): 7.07E-01
AveExpr.ST7612 SEMA4D (probe ILMN_1687533): 7.86E-01
AveExpr.ST7612 SEMA4F (probe ILMN_1805007): 7.51E-01
AveExpr.ST7612 SERPINB9 (probe ILMN_1742052): 7.55E-01
AveExpr.ST7612 SERPINI1 (probe ILMN_1814333): 7.79E-01
AveExpr.ST7612 SGK (probe ILMN_1702487): 8.82E-01
AveExpr.ST7612 SH3GLB2 (probe ILMN_2158336): 6.85E-01
AveExpr.ST7612 SLC23A2 (probe ILMN_1746578): 7.82E-01
AveExpr.ST7612 SLC25A4 (probe ILMN_1681670): 8.53E-01
AveExpr.ST7612 SLC25A4 (probe ILMN_2211780): 7.98E-01
AveExpr.ST7612 SLC25A23 (probe ILMN_1679949): 7.04E-01
AveExpr.ST7612 SLC44A2 (probe ILMN_1771987): 7.92E-01
AveExpr.ST7612 SLC45A3 (probe ILMN_1726114): 7.11E-01
AveExpr.ST7612 SLFN11 (probe ILMN_1752520): 7.62E-01
AveExpr.ST7612 SNAP23 (probe ILMN_1687519): 8.74E-01
AveExpr.ST7612 SNORD31 (probe ILMN_2072391): 7.85E-01
AveExpr.ST7612 SORT1 (probe ILMN_1707077): 8.42E-01
AveExpr.ST7612 SPAG9 (probe ILMN_2263718): 7.33E-01
AveExpr.ST7612 SPINT2 (probe ILMN_1800739): 8.11E-01
AveExpr.ST7612 SREBF1 (probe ILMN_1663035): 7.22E-01
AveExpr.ST7612 SRGN (probe ILMN_1760347): 7.62E-01
AveExpr.ST7612 SRGN (probe ILMN_2169152): 7.60E-01
AveExpr.ST7612 STARD10 (probe ILMN_1717052): 8.01E-01
AveExpr.ST7612 STK17B (probe ILMN_1798543): 7.91E-01
AveExpr.ST7612 STMN3 (probe ILMN_3244117): 9.01E-01
AveExpr.ST7612 STX3 (probe ILMN_1659544): 8.71E-01
AveExpr.ST7612 SUSD3 (probe ILMN_1785570): 8.58E-01
AveExpr.ST7612 TACC1 (probe ILMN_1770084): 7.64E-01
